Measurements from PMC6023986, “Interactions Between Emodin and Efflux Transporters on Rat Enterocyte by a Validated Ussing Chamber Technique” (Frontiers in Pharmacology, 2018).
Where two headings read alike, the source gives them in different places.

Experiments:
[1] = biological target: T1, MRP3 (Rattus norvegicus, UniProt O88563); assay: Ussing chamber bidirectional transport, model validation for MRP3 (teniposide substrate, benzbromarone inhibitor); assay type: in vitro ADME; conditions: jejunum and ileum, benzbromarone 470 μM, teniposide as substrate
T1 construct: intestinal segments including duodenum, jejunum, ileum, and colon from anesthetized rats were immediately removed by surgery; from tissue; host or cells: stripped rat intestine (jejunum and ileum in validation; jejunum for the emodin studies)
Source text: (§1) The four intestinal segments including duodenum, jejunum, ileum, and colon from anesthetized rats were immediately removed by surgery and washed with KRB solution. Each section of the intestinal segments was then placed in cold (on ice), bubbled (O2:CO2 95:5) KRB buffer. The four intestinal segments were then cut into 2 cm pieces, respectively, and serosas were removed by blunt dissection. Peyer’s patches were excluded from the experiment by visually identified. The stripped tissues were mounted in chambers with exposed surface area of 0.49 cm^2. Temperature of the chambers was maintained at 37 ± 0.5°C. Each of the half-cells in the chambers was filled with 5 mL fresh KRB buffer (pH 6.5). Tissue viability was continuously controlled by potential difference (PD). Tissue with electrical values less than 2 mV was refused ([Moazed and Hiebert, 2007]; [Heinen et al., 2013]).
(§2) Digoxin, pravastatin, and teniposide were employed as the test substrates of P-gp, MRP2, and MRP3. […] The experiments were started after 30 min equilibration time, by changing the KRB buffer on both sides; 5 mL KRB solution with different test compounds was filled in the mucosal or serosal compartment; meanwhile, equal volume fresh buffer was added to the other compartment. […] The bidirectional transport studies with specific inhibitors were assessed to validate this model whether or not suitable for P-gp, MRP2, and MRP3 studies. Samples were stored at –80°C until analysis ([Deusser et al., 2013]).
(§3) Frozen samples were adequately vortexed after thawing at the room temperature; 10 μL suitable IS solution was added to 200 μL samples; 200 μL methanol was added after a thorough vortex mixing for 30 s. The mixtures were then vortexed for 30 s and centrifuged at 15,000 rpm for 30 min. Finally, 5 μL of supernatant was injected into the LC-MS/MS system.
(§4) The quantifications of the compounds were performed by the TSQ Quantum Ultra Triple Quadrupole LC-MS/MS system from Thermo Fisher Scientific. Chromatography was carried out using an Agilent Poroshell 120 SB-C18 (2.7 μm, 2.1 mm × 100 mm) column with a Phenomenex AFO-8497 C18 pre-column, operating at 30°C. Adaptive gradient elution methods were applied for the analytes. The flow rate of the mobile phase was kept at 0.2 mL min^-1. Flow was directed to the ion spray interface. All measurements were carried out in negative ESI mode. Ion spray voltage was -2500 V. Vaporizer and capillary temperatures were set at 250 and 350°C, respectively. Auto sampler temperature was set at 10°C. Sheath gas and aux gas were set at 30 and 15 Arb, respectively. […] Peak integrations and calibrations were carried out using LC Quan 2.5.2 software from Thermo Fisher Scientific.
(§5) The Q (accumulative quantity), Papp (apparent permeability), Er (efflux ratio), Pr (Papp ratio), and Err (Er ratio) across the excited rat intestinal segments in the Ussing chamber were calculated using the following equations ([Li et al., 2012]; [Huang et al., 2016]): […]
(§6) where Cn (nM) is the concentration of the drug at the time point (n), Q (nM) is the accumulated absorption amount, A is the exposed surface area of the intestine (0.49 cm^2), dQ/dt (nM⋅s^-1) is the amount of the drug transported, and C0 (nM) is the initial concentration of the test drug. Experiments were performed in batches, so control groups were set as one for each batch.

[2] = tested on: P-gp; assay: Influence of emodin on P-gp function: digoxin bidirectional transport in the presence of emodin (Ussing chamber); assay type: in vitro ADME; conditions: rat jejunum; for Papp at 25 μM: rat
Source text: as §1
In this study, the effects of the three efflux transporters on emodin intestinal absorption were investigated. Meanwhile, the influence of emodin on intestinal P-gp, MRP2, and MRP3 functions were also discussed. Solutions with three concentrations (low, middle, and high) of emodin were filled in the mucosal or serosal compartment to measure the bidirectional transport characteristic. […] In the emodin impact experiments, digoxin, pravastatin, and teniposide were employed as P-gp, MRP2, and MRP3 substrates. Changes of the bidirectional transport characteristic were measured before and after adding emodin to the mucosal side.
as §3, §4, §5, §6

[3] = tested on: P-gp; assay: in vitro; conditions: rat
Method: The quantifications of the compounds were performed by the TSQ Quantum Ultra Triple Quadrupole LC-MS/MS system from Thermo Fisher Scientific. […] Adaptive gradient elution methods were applied for the analytes. The flow rate of the mobile phase was kept at 0.2 mL min^-1. Flow was directed to the ion spray interface. All measurements were carried out in negative ESI mode. Ion spray voltage was -2500 V. Vaporizer and capillary temperatures were set at 250 and 350°C, respectively. Auto sampler temperature was set at 10°C. Sheath gas and aux gas were set at 30 and 15 Arb, respectively. […] Peak integrations and calibrations were carried out using LC Quan 2.5.2 software from Thermo Fisher Scientific.

[4] = biological target: MRP2 (Rattus norvegicus, UniProt Q63120); assay: Ussing chamber bidirectional transport, model validation for MRP2 (pravastatin substrate, MK571 inhibitor); assay type: in vitro ADME; set-up: intestinal segments including duodenum, jejunum, ileum, and colon from anesthetized rats were immediately removed by surgery; from tissue; host or cells: stripped rat intestine (jejunum and ileum in validation; jejunum for the emodin studies); conditions: jejunum and ileum, MK571 186 μM, pravastatin as substrate
Source text: as §1, with “(PD).” for “(PD). Tissue with electrical values less than 2 mV was refused ([Moazed and Hiebert, 2007]; [Heinen et al., 2013]).”
as §2, with “studies.” for “studies. Samples were stored at –80°C until analysis ([Deusser et al., 2013]).”
as §3
as §4, with “Chromatography was carried out using an Agilent Poroshell 120 SB-C18 (2.7 μm, 2.1 mm × 100 mm) column with a Phenomenex AFO-8497 C18 pre-column, operating at 30°C.” left out
as §6

T1 sequence (O88563 whole entry): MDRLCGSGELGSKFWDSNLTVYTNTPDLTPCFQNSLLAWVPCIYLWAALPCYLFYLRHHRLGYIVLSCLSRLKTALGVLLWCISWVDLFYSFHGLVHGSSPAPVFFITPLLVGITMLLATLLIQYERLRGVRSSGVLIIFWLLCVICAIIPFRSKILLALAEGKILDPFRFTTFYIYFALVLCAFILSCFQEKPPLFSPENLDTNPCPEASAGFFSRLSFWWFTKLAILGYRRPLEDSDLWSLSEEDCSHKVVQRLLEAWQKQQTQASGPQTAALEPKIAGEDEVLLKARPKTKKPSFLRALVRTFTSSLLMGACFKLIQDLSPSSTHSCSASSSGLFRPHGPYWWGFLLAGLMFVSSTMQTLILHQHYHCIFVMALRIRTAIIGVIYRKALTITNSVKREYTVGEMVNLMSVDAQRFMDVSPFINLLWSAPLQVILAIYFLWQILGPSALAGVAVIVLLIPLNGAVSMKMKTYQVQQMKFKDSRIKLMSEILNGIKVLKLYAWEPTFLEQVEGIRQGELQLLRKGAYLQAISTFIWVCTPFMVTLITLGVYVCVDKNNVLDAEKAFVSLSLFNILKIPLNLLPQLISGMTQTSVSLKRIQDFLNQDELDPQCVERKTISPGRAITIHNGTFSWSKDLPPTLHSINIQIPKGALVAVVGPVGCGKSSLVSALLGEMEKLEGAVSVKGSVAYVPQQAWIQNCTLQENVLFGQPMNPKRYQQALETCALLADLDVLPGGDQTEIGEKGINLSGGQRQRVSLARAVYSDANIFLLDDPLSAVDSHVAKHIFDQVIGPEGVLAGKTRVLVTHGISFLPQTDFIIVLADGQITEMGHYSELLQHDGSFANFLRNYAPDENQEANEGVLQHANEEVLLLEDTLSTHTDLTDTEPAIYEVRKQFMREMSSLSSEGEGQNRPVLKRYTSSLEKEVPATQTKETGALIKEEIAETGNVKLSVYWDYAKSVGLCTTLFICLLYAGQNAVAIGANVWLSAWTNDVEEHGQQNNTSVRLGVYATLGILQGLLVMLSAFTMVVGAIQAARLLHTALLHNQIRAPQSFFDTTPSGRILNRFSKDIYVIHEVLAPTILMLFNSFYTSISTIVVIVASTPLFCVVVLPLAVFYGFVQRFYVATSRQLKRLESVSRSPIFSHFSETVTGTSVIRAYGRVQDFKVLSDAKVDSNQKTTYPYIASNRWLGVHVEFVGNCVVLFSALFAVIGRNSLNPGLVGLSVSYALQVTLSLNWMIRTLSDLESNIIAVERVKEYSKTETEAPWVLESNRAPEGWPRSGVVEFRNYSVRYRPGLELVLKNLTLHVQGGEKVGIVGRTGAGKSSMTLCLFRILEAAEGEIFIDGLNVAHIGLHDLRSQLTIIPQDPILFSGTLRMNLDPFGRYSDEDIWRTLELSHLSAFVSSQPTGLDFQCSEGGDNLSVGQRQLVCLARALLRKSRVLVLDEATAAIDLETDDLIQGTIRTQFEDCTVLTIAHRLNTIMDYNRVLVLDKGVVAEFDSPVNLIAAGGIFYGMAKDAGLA
Sequence of MRP2 (Q63120 whole entry, the tested form may be a part): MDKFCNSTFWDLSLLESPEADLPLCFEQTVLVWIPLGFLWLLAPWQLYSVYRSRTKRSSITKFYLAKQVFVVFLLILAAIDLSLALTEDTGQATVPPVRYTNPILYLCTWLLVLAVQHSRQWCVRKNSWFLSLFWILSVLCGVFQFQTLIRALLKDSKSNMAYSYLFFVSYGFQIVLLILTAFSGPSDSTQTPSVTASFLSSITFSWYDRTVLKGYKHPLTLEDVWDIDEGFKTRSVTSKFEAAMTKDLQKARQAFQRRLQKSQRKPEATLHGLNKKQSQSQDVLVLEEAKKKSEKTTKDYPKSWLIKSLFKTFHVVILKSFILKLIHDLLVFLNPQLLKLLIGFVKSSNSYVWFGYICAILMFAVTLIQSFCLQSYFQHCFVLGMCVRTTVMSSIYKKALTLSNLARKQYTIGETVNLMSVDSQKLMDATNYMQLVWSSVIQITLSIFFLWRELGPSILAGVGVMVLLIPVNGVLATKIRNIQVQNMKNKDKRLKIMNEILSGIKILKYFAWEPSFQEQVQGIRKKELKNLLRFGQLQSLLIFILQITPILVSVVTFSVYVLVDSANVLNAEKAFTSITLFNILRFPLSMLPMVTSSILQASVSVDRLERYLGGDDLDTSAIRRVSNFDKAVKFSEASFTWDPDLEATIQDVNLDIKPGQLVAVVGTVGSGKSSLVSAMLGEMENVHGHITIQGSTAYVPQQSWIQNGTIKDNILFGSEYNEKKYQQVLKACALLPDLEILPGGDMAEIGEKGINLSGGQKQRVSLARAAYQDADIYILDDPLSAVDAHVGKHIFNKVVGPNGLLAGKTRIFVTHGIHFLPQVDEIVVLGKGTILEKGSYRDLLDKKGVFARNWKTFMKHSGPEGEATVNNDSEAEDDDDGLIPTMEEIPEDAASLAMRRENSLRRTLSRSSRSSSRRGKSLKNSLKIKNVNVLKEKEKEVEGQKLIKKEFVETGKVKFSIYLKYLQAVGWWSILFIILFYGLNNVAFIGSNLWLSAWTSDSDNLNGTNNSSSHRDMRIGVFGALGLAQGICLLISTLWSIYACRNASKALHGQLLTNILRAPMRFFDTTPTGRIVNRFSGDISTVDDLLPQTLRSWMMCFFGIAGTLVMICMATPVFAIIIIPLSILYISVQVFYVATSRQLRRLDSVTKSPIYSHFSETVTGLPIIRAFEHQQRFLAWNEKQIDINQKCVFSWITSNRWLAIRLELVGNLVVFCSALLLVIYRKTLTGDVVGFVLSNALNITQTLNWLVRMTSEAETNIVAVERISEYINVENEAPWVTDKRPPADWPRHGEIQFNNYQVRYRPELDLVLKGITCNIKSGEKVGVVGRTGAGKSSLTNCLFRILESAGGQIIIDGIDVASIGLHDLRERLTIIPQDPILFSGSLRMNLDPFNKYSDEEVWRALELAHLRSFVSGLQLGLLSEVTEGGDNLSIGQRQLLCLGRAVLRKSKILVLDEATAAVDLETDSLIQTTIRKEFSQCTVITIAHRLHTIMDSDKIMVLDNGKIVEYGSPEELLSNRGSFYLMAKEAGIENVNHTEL

CCc1oc2ccccc2c1C(=O)c1cc(Br)c(O)c(Br)c1 [Benzbromarone]
Inhibition effect on MRP3 [1]: significant inhibition effect

C[C@H]1O[C@@H](O[C@H]2[C@@H](O)C[C@H](O[C@H]3[C@@H](O)C[C@H](O[C@H]4CC[C@@]5(C)[C@H](CC[C@@H]6[C@@H]5C[C@@H](O)[C@]5(C)[C@@H](C7=CC(=O)OC7)CC[C@]65O)C4)O[C@@H]3C)O[C@@H]2C)C[C@H](O)[C@@H]1O [Digoxin]
Change of Er values of digoxin after adding emodin ([2]; digoxin 25 μM, emodin 185, 370, 740 μM): significant higher | Papp at 25 μM ([2]; pH 6.5, digoxin 25 μM, without emodin, read-out: Papp M-S, control): 91.6 ± 41 ×10⁻⁶ cm/s | Papp at 25 μM ([2]; pH 6.5, digoxin 25 μM, without emodin, read-out: Papp S-M, control): 152 ± 43.9 ×10⁻⁶ cm/s | Papp at 25 μM ([2]; pH 6.5, with emodin 185 μM on mucosal side, digoxin 25 μM, emodin 185 μM on mucosal side, read-out: Papp M-S in the presence of emodin): 55.8 ± 29.8 ×10⁻⁶ cm/s | Papp at 25 μM ([2]; pH 6.5, with emodin 185 μM on mucosal side, digoxin 25 μM, emodin 185 μM on mucosal side, read-out: Papp S-M in the presence of emodin): 257 ± 47.6 ×10⁻⁶ cm/s | Papp at 25 μM ([2]; pH 6.5, with emodin 370 μM on mucosal side, digoxin 25 μM, emodin 370 μM on mucosal side, read-out: Papp M-S in the presence of emodin): 49 ± 12.8 ×10⁻⁶ cm/s | Papp at 25 μM ([2]; pH 6.5, with emodin 370 μM on mucosal side, digoxin 25 μM, emodin 370 μM on mucosal side, read-out: Papp S-M in the presence of emodin): 461 ± 191 ×10⁻⁶ cm/s | Papp at 25 μM ([2]; pH 6.5, with emodin 740 μM on mucosal side, digoxin 25 μM, emodin 740 μM on mucosal side, read-out: Papp M-S in the presence of emodin): 20.4 ± 7.6 ×10⁻⁶ cm/s | Papp at 25 μM ([2]; pH 6.5, with emodin 740 μM on mucosal side, digoxin 25 μM, emodin 740 μM on mucosal side, read-out: Papp S-M in the presence of emodin): 142 ± 29.7 ×10⁻⁶ cm/s | Papp ([3]; pH 6.5, Papp M-S, control, rat colon, without inhibitor): 63.1 ± 33.1 ×10⁻⁶ cm/s | Papp ([3]; pH 6.5, Papp M-S, control, rat duodenum, without inhibitor): 72.5 ± 32.8 ×10⁻⁶ cm/s | Papp ([3]; pH 6.5, Papp M-S, control, rat ileum, without inhibitor): 43.1 ± 15 ×10⁻⁶ cm/s | Papp ([3]; pH 6.5, Papp M-S, control, rat jejunum, without inhibitor): 57.8 ± 11.2 ×10⁻⁶ cm/s | Papp ([3]; pH 6.5, Papp S-M, control, rat colon, without inhibitor): 137 ± 66.3 ×10⁻⁶ cm/s | Papp ([3]; pH 6.5, Papp S-M, control, rat duodenum, without inhibitor): 186 ± 144 ×10⁻⁶ cm/s | Papp ([3]; pH 6.5, Papp S-M, control, rat ileum, without inhibitor): 228 ± 136 ×10⁻⁶ cm/s | Papp ([3]; pH 6.5, Papp S-M, control, rat jejunum, without inhibitor): 270 ± 125 ×10⁻⁶ cm/s | Papp ([3]; pH 6.5, with verapamil 220 μM, mucosal side, Papp M-S, with inhibitor, rat duodenum, with verapamil 220 μM on mucosal side): 45.3 ± 23.2 ×10⁻⁶ cm/s | Papp ([3]; pH 6.5, with verapamil 220 μM, mucosal side, Papp M-S, with inhibitor, rat ileum, with verapamil 220 μM on mucosal side): 191 ± 90.5 ×10⁻⁶ cm/s | Papp ([3]; pH 6.5, with verapamil 220 μM, mucosal side, Papp M-S, with inhibitor, rat jejunum, with verapamil 220 μM on mucosal side): 119 ± 58.5 ×10⁻⁶ cm/s | Papp ([3]; pH 6.5, with verapamil 220 μM, mucosal side, Papp S-M, with inhibitor, rat duodenum, with verapamil 220 μM on mucosal side): 79.7 ± 32.2 ×10⁻⁶ cm/s | Papp ([3]; pH 6.5, with verapamil 220 μM, mucosal side, Papp S-M, with inhibitor, rat ileum, with verapamil 220 μM on mucosal side): 157 ± 108 ×10⁻⁶ cm/s | Papp ([3]; pH 6.5, with verapamil 220 μM, mucosal side, Papp S-M, with inhibitor, rat jejunum, with verapamil 220 μM on mucosal side): 96.4 ± 86.4 ×10⁻⁶ cm/s | Papp ([3]; pH 6.5, with verapamil 440 μM, mucosal side, Papp M-S, with inhibitor, rat colon, with verapamil 440 μM on mucosal side): 189 ± 34.3 ×10⁻⁶ cm/s | Papp ([3]; pH 6.5, with verapamil 440 μM, mucosal side, Papp S-M, with inhibitor, rat colon, with verapamil 440 μM on mucosal side): 191 ± 40.1 ×10⁻⁶ cm/s

CN(C)C(=O)CCSC(SCCC(=O)O)c1cccc(/C=C/c2ccc3ccc(Cl)cc3n2)c1 (stereo not drawn) [MK571]
Inhibition effect on MRP2 [4]: significant inhibition effect
